Assay results from US8012944B2, “Method for treating cancer using IAP antisense oligomer and chemotherapeutic agent” (Pharmascience Inc., priority 2003, dated 2011).

Tests used:
[1] = tested on: HIAP1 mRNA; assay: HIAP1 mRNA in SF295 cells under cycloheximide induction (TaqMan); assay type: cell-based, human
Method: (§1) The effect of HIAP1 antisense nucleobase oligomers on HIAP1 protein and mRNA expression was also examined in cells induced to express HIAP1. SF295 cells were transfected with oligonucleotides, or were mock transfected. The transfected cells were then treated with 10 μg/ml cycloheximide for 24 hours to induce 70 kDa HIAP1 mRNA and protein. Protein levels were measured by western blot analysis with an anti-HIAP1 polyclonal antibody, and normalized against actin protein in a re-probing of the same blots. The densitometric scan results were plotted against the mock results (set at 100%) in FIG. 22B. […] The transfection process itself (e.g., mock or scrambled survivin) induces HIAP1 protein compared to the untreated sample as shown on the western immunoblot.
Controls for this experiment were three oligonucleotides for APO 2: one scrambled sequence (same base composition but random order, 5′-AAGGGCGGCGGAGTGAGAC-3′; SEQ ID NO: 297), one reverse polarity (same base composition, same sequential order but in the opposite direction, 5′-AGAGGACGGAGTCGGAGGC-3′; SEQ ID NO: 298), and one mismatch sequence (containing four base mismatches out of 19 bases, 5′-CGGAGCGTGAGGATGGAGA-3′; SEQ ID NO: 299).

[2] = tested on: XIAP protein; assay: XIAP protein knock-down in H460 cells (western blot, densitometry); assay type: cell-based, human
Method: FIGS. 3 and 4 are graphs showing the effects of 4×4 mixed backbone (MBO) FG8 or E12 oligonucleotides in amounts of 31 nM (FIG. 3) or 63 nM (FIG. 4). H460 lung carcinoma cells were transfected for 18 hours on one, two, or three consecutive days using 125 nM MBOs and Lipofectamine 2000. Samples for western analysis were harvested at the indicated time. Scanning densitometry was performed, and XIAP protein levels were normalized to GAPDH and compared to a mock control set to 100%. The indicated percentages express % XIAP protein knockdown versus specific scrambled controls.
One day prior to transfection, H460 cells were plated in 6- or 96-well tissue culture plates. Phosphorothioate antisense oligonucleotides were delivered into cells with Lipofectamine 2000 (Life Technologies) in the form of liposome-oligonucleotide complexes. Following a 4.5 or 6 h transfection, the transfection medium was replaced with RPMI medium containing 10% FBS, and the cells incubated for another 24 or 48 h.
The cells or tumor tissue samples were lysed with ice-cold lysis buffer (50 mM Tris, 150 mM NaCl, 2.5 mM EDTA, 0.1% SDS, 0.5% sodium deoxycholate, 1% NP-40, 0.02% sodium azide) containing protease inhibitors (Complete-Mini protease inhibitor tablets; Boehringer Mannheim GmBH, Mannheim, Germany). After incubation for 30 min on ice, samples were centrifuged at 10,000 rpm for 15 min, and stored at −20° C. Protein content in the lysed extracts was determined using a detergent-compatible Bio-Rad assay (Bio-Rad Labs, Hercules, Calif.). Equal amounts of protein (40 μg/lane) were separated on 12% SDS-polyacrylamide gels or 4-15% gradient SDS-polyacrylamide pre-made gels (Bio-Rad) and transferred to nitrocellulose membranes. Primary antibodies against XIAP, Bcl-2 (DAKO, Glostrup, Denmark), Bax (Sigma, St. Louis, Mo.), β-actin (Sigma), caspase-3 (BD PharMingen, San Diego, Calif.), and PARP (BD PharMingen) were used. The secondary antibody was the appropriate horseradish-conjugated anti-mouse or anti-rabbit IgG (Promega, Madison, Wis.). Proteins were detected by enhanced chemiluminescence (ECL; Amersham Pharmacia Biotech, Buckinghamshire, England) and visualized after exposure to Kodak autoradiography film. Scanning densitometry (Molecular Dynamics, Sunnyvale, Calif.) was performed to quantify band intensities by volume/area integration. The amount of XIAP, caspase-3, Bcl-2 and Bax in cells was normalized to their respective lane β-actin levels, upon stripping and reprobing.

[3] = tested on: MDA-MB-435/LCC6 human breast carcinoma xenografts; assay: Systemic (i.p.) PS-oligonucleotides in LCC6 breast carcinoma xenografts; assay type: in vivo, female SCID-RAG2 mice; conditions: 12.5 mg/kg i.p.; day 35, two weeks after the last treatment
Method: Initial systemic PS-oligonucleotide studies were designed without any chemotherapeutic agents. SCID-RAG2 mice were inoculated with H460 human lung carcinoma cells (s.c. shoulder injection of 10^6 cells) and treatments with G4 and F3 AS PS-oligonucleotides, as well as a scrambled control, were initiated three days after tumor inoculation. Nucleobase oligomer injections were administered i.p. at 12.5 mg/kg three times a week for three weeks. At the end of the treatment period, mean tumor sizes in the groups treated with either G4 or F3 AS oligonucleotides were ˜50% smaller than in the group treated with a scrambled control oligonucleotides (FIG. 15). The same treatment protocol was tested on female SCID-RAG2 mice inoculated orthotopically with MDA-MB-435/LCC6 human breast carcinoma cells. Two weeks after the last treatment (day 35) tumor volumes of mice treated with F3, C5 or G4 AS oligonucleotides were 70%, 60%, and 45%, respectively, smaller than vehicle controls (FIG. 16).
Efficacy experiments were conducted in male RAG2 immunodeficient mice bearing NCI-H460 tumours or female RAG2 mice bearing LCC6 tumors. Treatments were commenced on day 3 after tumor inoculation. Saline (controls), G4 AS oligonucleotides (5 or 15 mg/kg), or G4 SC oligonucleotides (5 or 15 mg/kg) were administered i.p. daily for five doses a week over a three week regimen. Vinorelbine (VNB, 5 or 10 mg/kg) was administered i.v. via the tail vein, either alone or in combination with oligonucleotides, at day 3, 7, 11 and 17 after tumor inoculation. When oligonucleotides were administered in combination with VNB, the drug treatment was performed four hours after ODN treatment.

[4] = tested on: HIAP1 mRNA; assay: HIAP1 mRNA in SF295 cells, basal conditions (TaqMan); assay type: cell-based, human; design: decrease of HIAP1 mRNA compared to mock or scrambled survivin control: concentration or dose not given beside the values
Method: RNA was extracted from cells lysed in RLT buffer (QIAGEN, Valencia, Calif.), and purified using QIAGEN RNeasy columns/kits. Real-time quantitative PCR was performed on a Perkin-Elmer ABI 7700 Prism PCR machine. RNA was reverse transcribed and amplified according to the TaqMan Universal PCR Master Mix protocol of PE Biosystems, using primers and probes designed to specifically recognize XIAP, HIAP1, survivin, or GAPDH. For human survivin, the forward primer was 5′-[…]-3′ (SEQ ID NO: 263), the reverse primer was 5′-GAAAGGAAAGCGCAACCG-3′ (SEQ ID NO: 264), and the probe was 5′-(FAM)[…](TAMRA)-3′ (SEQ ID NO: 265). For human HIAP1, the forward primer was 5′-[…]-3′ (SEQ ID NO: 266), the reverse primer was 5′-[…]-3′ (SEQ ID NO: 267), and the probe was 5′-(FAM)[…](TAMRA)-3′ (SEQ ID NO: 268). For human XIAP, the forward primer was 5′-[…]-3′ (SEQ ID NO: 269), the reverse primer was 5′-[…]-3′ (SEQ ID NO: 270), and the probe was 5′-(FAM)[…](TAMRA)-3′ (SEQ ID NO: 271). For human GAPDH, the forward primer was 5′-GAAGGTGAAGGTCGGAGTC-3′ (SEQ ID NO: 272), the reverse primer was 5′-GAAGATGGTGATGGGATTC-3′ (SEQ ID NO: 273), and the probe was 5′-(JOE)[…](TAMRA)-3′ (SEQ ID NO: 274). FAM is 6-carboxyfluoroscein, JOE is 6-carboxy-4,5-dichloro-2,7-dimethoxyfluoroscein, and TAMRA is 6-carboxy-N,N,N′,N′-tetramethylrhodamine. FAM and JOE are 5′ reporter dyes, while TAMRA is a 3′ quencher dye.
Relative quantification of gene expression was performed as described in the PE Biosystems manual using GAPDH as an internal standard. The comparative Ct (cycle threshold) method was used for relative quantitation of IAP mRNA levels compared to GAPDH mRNA levels. Briefly, real-time fluorescence measurements were taken at each PCR cycle and the threshold cycle (Ct) value for each sample was calculated by determining the point at which fluorescence exceeded a threshold limit of 30 times the baseline standard deviation. The average baseline value and the baseline SD are calculated starting from the third cycle baseline value and stopping at the baseline value three cycles before the signal starts to exponentially rise. The PCR primers and/or probes for the specific IAPs were designed to span at least one exon-intron boundary separated by 1 kb or more of genomic DNA, to reduce the possibility of amplifying and detecting genomic DNA contamination. The specificity of the signal, and possible contamination from DNA, were verified by treating some RNA samples with either DNase or RNase, prior to performing the reverse transcription and PCR reaction steps.
A library of 15 HIAP1 antisense nucleobase oligomers as oligonucleotides was screened for protein knock-down by western blot analysis and for RNA knock-down by TaqMan, using the primers and probes described in Example 3, above, under two different conditions. HIAP1 RNA levels may be detected using standard Northern blot analyses or RT-PCR techniques. The antisense oligonucleotides were administered to cells under basal conditions or under cycloheximide-induction conditions (24 hour treatment with sub-toxic doses). Cycloheximide (CHX) can lead to a 10- to 200-fold induction of HIAP1 mRNA depending on the cell line treated. […] This effect of CHX is via two distinct mechanisms of action. First, CHX activates NFkB, a known transcriptional inducer of HIAP1, by blocking the de novo synthesis of a labile protein, IkB, which is an inhibitor of NFkB. This effect is mimicked by puromycin, another protein synthesis inhibitor, and by TNF-alpha, which induces a signaling cascade leading to the phosphorylation, ubiquination, and degradation of IkB.
SF295 glioblastoma cells were transfected with lipofectin and oligonucleotide (scrambled survivin, no oligonucleotide, antisense APO 1 to APO 15) or left untreated. […]

[5] = tested on: HIAP1 protein; assay: HIAP1 protein in cycloheximide-induced SF295 cells (western blot); assay type: cell-based, human
From the text: HIAP1 was detected on a western immunoblot using an affinity-purified anti-rat HIAP1 rabbit polyclonal antibody as a primary antibody and was detected by ECL (Amersham) on X-ray film with a secondary horseradish-peroxidase-conjugated anti-rabbit Ig antibody and a chemiluminescent substrate. The anti-HIAP1 polyclonal antibody is raised against a GST-fusion of the rat HIAP1. This antibody cross-reacts with both human and murine HIAP1 and HIAP2.
as §1

[6] = tested on: XIAP mRNA; assay: XIAP mRNA knock-down in H460 cells (real-time RT-PCR / TaqMan); assay type: cell-based, human
Method in brief: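 NCI-H460 cells transfected with phosphorothioate antisense oligonucleotides via Lipofectamine 2000; RNA isolated after 6 h treatment. XIAP mRNA quantified by one-step TaqMan real-time RT-PCR, comparative Ct (threshold 30× baseline SD), normalized to GAPDH and expressed relative to untreated control cells.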

5′-AAGGGCGGCGGAGTGAGAC-3′ (listed as DNA, chemistry not given here) [H1 sc apo 2, reference compound]
effect on HIAP1 mRNA (and protein) under CHX induction (in words) [1]: did not change HIAP1 mRNA levels at all

ACCATTCTGGATACCAGAA (chemistry not fully specified) [C5 AS]
effect on XIAP protein levels (in words) [2]: did not show sequence specific effects | tumor volumes smaller than vehicle controls [3]: 60%

TCATTTGAGCCTGGGAGGT (chemistry not given here) [APO 1]
HIAP1 mRNA levels (in words) ([4]; SF295 cells (FIG. 21)): did not cause a stress-induced increase in HIAP1 mRNA | decrease of HIAP1 mRNA compared to mock or scrambled survivin control ([4]; SF295 cells, six hours after transfection): ~50% | activity in the HIAP1 protein and mRNA assays [5]: high activity, or had significant activity in both the protein and mRNA assays

TGTCAGTACATGTTGGCTC (antisense; chemistry not fully specified) [Code E12]
effect on XIAP protein levels (in words) [2]: significantly reduced XIAP protein levels | XIAP down-regulation H460 RNA [6]: 74%

mUmGmCmACCCTGGATACCmAmUmUmU (antisense NGCACCCNGGANACCANNN; 2'-O-methyl modifications, chemistry not fully specified) [FG8]
effect on XIAP protein levels (in words) [2]: significantly reduced XIAP protein levels
